Data: ChEMBL document CHEMBL1201862, “PubChem BioAssay data set” (2004)
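Method: 48-hour compound exposure of cells in 96-well plates, five concentrations, linear interpolation of endpoints. GI50 marks 50% less growth.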 Activity calls are given as the source filed them. No stated cut-off is given here; in the data, active = GI50 up to about 1.1 µM and inactive = higher.

Assays:
Assay in all cases: inhibition of tumour cell growth, NCI panel, 48 h
786-0 = system: 786-0
IGROV-1 = system: IGROV-1
CAKI-1 = system: CAKI-1
UACC-257 = system: UACC-257
SF-539 = system: SF-539
MOLT-4 = system: MOLT-4
HL-60 = system: HL-60
K562 = system: K562
SN12C = system: SN12C
A549 = system: A549
LOX IMVI = system: LOX IMVI
SK-MEL-28 = system: SK-MEL-28
Malme-3M = system: Malme-3M
CCRF-CEM = system: CCRF-CEM
OVCAR-4 = system: OVCAR-4
RXF 393 = system: RXF 393
ACHN = system: ACHN
MDA-N = system: MDA-N
T47D = system: T47D

Structure (SMILES)	GI50 (786-0)	GI50 (IGROV-1)	GI50 (CAKI-1)	GI50 (UACC-257)	GI50 (SF-539)	GI50 (MOLT-4)	GI50 (HL-60)	GI50 (K562)	GI50 (SN12C)	GI50 (A549)	GI50 (LOX IMVI)	GI50 (SK-MEL-28)	GI50 (Malme-3M)	GI50 (CCRF-CEM)	GI50 (OVCAR-4)	GI50 (RXF 393)	GI50 (ACHN)	GI50 (MDA-N)	GI50 (T47D)
CCOc1ccc(/N=N/c2ccc3oc(=O)c(C(=O)Nc4ccc(OC)cc4)cc3c2)cc1	21.9 µM (inactive)	23.5 µM (inactive)	11 µM (inactive)	27.9 µM (inactive)	20.2 µM (inactive)	4.07 µM (inactive)	2.88 µM (inactive)	8.38 µM (inactive)	18 µM (inactive)	40.1 µM (inactive)	11.4 µM (inactive)	18.9 µM (inactive)	30.1 µM (inactive)	2.36 µM (inactive)	7.1 µM (inactive)	–	–	–	–
Cc1cc(C)c(N[S+]([O-])c2cccc(Cl)c2)c(C)c1 (stereo not drawn)	> 100 µM (inactive)	–	–	> 100 µM (inactive)	> 100 µM (inactive)	> 100 µM (inactive)	> 100 µM (inactive)	> 100 µM (inactive)	> 100 µM (inactive)	> 100 µM (inactive)	–	> 100 µM (inactive)	> 100 µM (inactive)	> 100 µM (inactive)	–	> 100 µM (inactive)	> 100 µM (inactive)	> 100 µM (inactive)	–
CC1=NN(c2nc(N)nc(CN3CCOCC3)n2)C(C)(C)C1	15.2 µM (inactive)	16.9 µM (inactive)	20.2 µM (inactive)	> 100 µM (inactive)	> 100 µM (inactive)	> 100 µM (inactive)	15.2 µM (inactive)	> 100 µM (inactive)	> 100 µM (inactive)	> 100 µM (inactive)	14.9 µM (inactive)	> 100 µM (inactive)	–	30.1 µM (inactive)	20.5 µM (inactive)	> 100 µM (inactive)	31.8 µM (inactive)	–	> 100 µM (inactive)
CC1=C2O[C@]3(O)C=C2C(=C(O)C1=O)[C@@H]1O[C@H](CC[C@H](C)/C=C(\C)C[C@@H](C)C[C@@H]3C)[C@H](C)[C@H](O)[C@H]1C [KENDOMYCIN]	0.149 µM (active)	0.163 µM (active)	0.541 µM (active)	0.239 µM (active)	0.173 µM (active)	0.097 µM (active)	0.145 µM (active)	0.166 µM (active)	0.811 µM (active)	0.982 µM (active)	0.24 µM (active)	0.229 µM (active)	0.194 µM (active)	0.0473 µM (active)	0.194 µM (active)	0.161 µM (active)	0.132 µM (active)	0.166 µM (active)	–
C[N+](C)(C)CC(=O)N/N=C(\Cc1nc2ccc([N+](=O)[O-])cc2nc1O)C(=O)Nc1nc2ccc([N+](=O)[O-])cc2s1	93.8 µM (inactive)	23.5 µM (inactive)	24.6 µM (inactive)	> 100 µM (inactive)	31.8 µM (inactive)	49.2 µM (inactive)	> 100 µM (inactive)	86.3 µM (inactive)	89.1 µM (inactive)	36.3 µM (inactive)	35.6 µM (inactive)	> 100 µM (inactive)	–	40.9 µM (inactive)	30 µM (inactive)	41.3 µM (inactive)	52.2 µM (inactive)	–	21.9 µM (inactive)
CSC(=S)NN=C1CCCC1.CSC(=S)NN=C1CCCC1.[Zn+2]	33.5 µM (inactive)	10.1 µM (inactive)	46.7 µM (inactive)	24 µM (inactive)	21.3 µM (inactive)	9.66 µM (inactive)	–	50.4 µM (inactive)	17.9 µM (inactive)	18.8 µM (inactive)	10.7 µM (inactive)	72.4 µM (inactive)	12.5 µM (inactive)	< 0.01 µM (active)	52.5 µM (inactive)	28.4 µM (inactive)	1.83 µM (inactive)	–	33.5 µM (inactive)
OC1CCN2Cc3ccccc3N=C12 (stereo not drawn)	> 100 µM (inactive)	–	> 100 µM (inactive)	> 100 µM (inactive)	> 100 µM (inactive)	> 100 µM (inactive)	> 100 µM (inactive)	> 100 µM (inactive)	> 100 µM (inactive)	> 100 µM (inactive)	> 100 µM (inactive)	> 100 µM (inactive)	> 100 µM (inactive)	> 100 µM (inactive)	> 100 µM (inactive)	> 100 µM (inactive)	> 100 µM (inactive)	> 100 µM (inactive)	–
CC1(O)Oc2ccc3ccccc3c2C=C1C(N)=O (stereo not drawn)	> 100 µM (inactive)	79.8 µM (inactive)	80.5 µM (inactive)	> 100 µM (inactive)	42.1 µM (inactive)	18.6 µM (inactive)	> 100 µM (inactive)	> 100 µM (inactive)	–	–	> 100 µM (inactive)	> 100 µM (inactive)	–	86.5 µM (inactive)	72.9 µM (inactive)	49.2 µM (inactive)	> 100 µM (inactive)	–	36.6 µM (inactive)
COc1ccc(OC)c2c1C=C[C@H](C1(C)SCCS1)C2C(C)=O (stereo partly drawn)	31.7 µM (inactive)	42.4 µM (inactive)	32.6 µM (inactive)	35.6 µM (inactive)	23.1 µM (inactive)	19.7 µM (inactive)	18.2 µM (inactive)	32.7 µM (inactive)	35.3 µM (inactive)	34.1 µM (inactive)	9.84 µM (inactive)	24.8 µM (inactive)	20.7 µM (inactive)	27.7 µM (inactive)	42.5 µM (inactive)	29.4 µM (inactive)	35.2 µM (inactive)	–	24.2 µM (inactive)
CC(C)=CCC[C@]1(C)C=Cc2c(O)c3c(c(CC=C(C)C)c2O1)O[C@]12C(=C[C@@H]4CC1C(C)(C)O[C@@]2(C/C=C(/C)C(=O)O)C4=O)C3=O	0.488 µM (active)	1.43 µM (inactive)	0.973 µM (active)	2.31 µM (inactive)	0.206 µM (active)	0.305 µM (active)	0.285 µM (active)	0.676 µM (active)	0.719 µM (active)	0.863 µM (active)	0.442 µM (active)	1.28 µM (inactive)	1.19 µM (inactive)	0.273 µM (active)	2.38 µM (inactive)	0.5 µM (active)	0.419 µM (active)	0.47 µM (active)	–
C1OCC2S[C@@H]3COCO[C@@H]3C2O1 (stereo partly drawn)	> 100 µM (inactive)	–	> 100 µM (inactive)	> 100 µM (inactive)	> 100 µM (inactive)	> 100 µM (inactive)	> 100 µM (inactive)	> 100 µM (inactive)	> 100 µM (inactive)	> 100 µM (inactive)	> 100 µM (inactive)	> 100 µM (inactive)	> 100 µM (inactive)	> 100 µM (inactive)	> 100 µM (inactive)	> 100 µM (inactive)	> 100 µM (inactive)	–	–
C=C(C)C1CC[C@]2(C(=O)O)CCC3(C)[C@H](CCC4[C@@]5(C)CC[C@H](OC6OC(CO)C(O)C6OC6OC(C)C(O)C(O)C6O)[C@@](C)(CO)C5CC[C@]43C)C12 (stereo partly drawn)	> 100 µM (inactive)	> 100 µM (inactive)	–	–	> 100 µM (inactive)	> 100 µM (inactive)	> 100 µM (inactive)	> 100 µM (inactive)	> 100 µM (inactive)	> 100 µM (inactive)	> 100 µM (inactive)	> 100 µM (inactive)	–	> 100 µM (inactive)	> 100 µM (inactive)	> 100 µM (inactive)	> 100 µM (inactive)	–	–
O=C(/C=C/c1c(O)nc2ccccc2c1O)CC(=O)C(=O)Nc1cccc(O)c1	> 100 µM (inactive)	> 100 µM (inactive)	> 100 µM (inactive)	> 100 µM (inactive)	> 100 µM (inactive)	> 100 µM (inactive)	> 100 µM (inactive)	> 100 µM (inactive)	> 100 µM (inactive)	> 100 µM (inactive)	> 100 µM (inactive)	> 100 µM (inactive)	> 100 µM (inactive)	21.1 µM (inactive)	> 100 µM (inactive)	–	> 100 µM (inactive)	–	> 100 µM (inactive)
CC(=O)NC1(C)CCC(C(C)(C)NC(C)=O)CC1 (stereo not drawn)	> 100 µM (inactive)	> 100 µM (inactive)	> 100 µM (inactive)	> 100 µM (inactive)	> 100 µM (inactive)	> 100 µM (inactive)	> 100 µM (inactive)	> 100 µM (inactive)	> 100 µM (inactive)	> 100 µM (inactive)	> 100 µM (inactive)	> 100 µM (inactive)	> 100 µM (inactive)	> 100 µM (inactive)	> 100 µM (inactive)	> 100 µM (inactive)	> 100 µM (inactive)	> 100 µM (inactive)	–
O=S(=O)(c1ccccc1)N1CN2CN(C1)CN(S(=O)(=O)c1ccccc1)C2	> 100 µM (inactive)	> 100 µM (inactive)	> 100 µM (inactive)	> 100 µM (inactive)	> 100 µM (inactive)	–	26.6 µM (inactive)	> 100 µM (inactive)	> 100 µM (inactive)	> 100 µM (inactive)	> 100 µM (inactive)	> 100 µM (inactive)	–	–	> 100 µM (inactive)	55.7 µM (inactive)	79.8 µM (inactive)	–	–
Nc1ncc(Cc2nc3ccccc3s2)s1	> 100 µM (inactive)	63.8 µM (inactive)	53.3 µM (inactive)	76.7 µM (inactive)	> 100 µM (inactive)	> 100 µM (inactive)	> 100 µM (inactive)	56.4 µM (inactive)	> 100 µM (inactive)	69.8 µM (inactive)	> 100 µM (inactive)	> 100 µM (inactive)	68.9 µM (inactive)	30.3 µM (inactive)	> 100 µM (inactive)	> 100 µM (inactive)	54.5 µM (inactive)	–	48.6 µM (inactive)
